Experimental data taken from the supplement of paper PMC10307832.

Tests used:
Experiment in all cases: relative viability (nuclei count vs DMSO), 5 days (fraction); higher = more cells survive
[1] = compound: C1=CC=C(C(=C1)C2=CC=C(C=C2)C3=CSC4=C3C(=C(C(=O)N4)C#N)O)O + CC(C)C[C@H](NC(=O)[C@H](Cc1ccccc1)NC(=O)c1cnccn1)B(O)O [Bortezomib] (partner 0.002 µM)
How it was run: (§1)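 Lung cancer cell lines were pin-tool dosed in 1536-well plates on the day after seeding, with either a lone drug or a fixed anchor-drug dose plus five library-drug doses (not always all listed) in √10 steps. Nuclei were counted on 4× images after 5 days. Relative viability is the ratio of treated-well to vehicle-well nuclei counts, with each value a median of duplicate plates.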

[2] = compound: C1=CC=C(C(=C1)C2=CC=C(C=C2)C3=CSC4=C3C(=C(C(=O)N4)C#N)O)O + CS(=O)(=O)N1CCN(Cc2cc3nc(-c4cccc5[nH]ncc45)nc(N4CCOCC4)c3s2)CC1 [Pictilisib] (partner 1 µM)
How it was run: as §1

[3] = compound: CC1=CN2C(=O)C=C(N=C2C(=C1)C(C)NC3=CC=CC=C3)N4CCOCC4 [TGX 221] + N=C(N)NC(=N)NCCc1ccccc1 [Phenformin] (partner 250 µM)
How it was run: as §1

[4] = compound: CC1=CN2C(=O)C=C(N=C2C(=C1)C(C)NC3=CC=CC=C3)N4CCOCC4 [TGX 221] + Nc1ncn([C@H]2C[C@H](O)[C@@H](CO)O2)c(=O)n1 [Decitabine] (partner 2 µM)
How it was run: as §1

Cell Line	relative viability ([1]; first compound 0.08 µM)	relative viability ([1]; first compound 0.253 µM)	relative viability ([1]; first compound 0.8 µM)	relative viability ([1]; first compound 2.53 µM)	relative viability ([1]; first compound 8 µM)	relative viability ([2]; first compound 0.08 µM)	relative viability ([2]; first compound 0.253 µM)	relative viability ([2]; first compound 0.8 µM)	relative viability ([2]; first compound 2.53 µM)	relative viability ([2]; first compound 8 µM)	relative viability ([3]; first compound 0.08 µM)	relative viability ([3]; first compound 0.253 µM)	relative viability ([3]; first compound 0.8 µM)	relative viability ([3]; first compound 2.53 µM)	relative viability ([3]; first compound 8 µM)	relative viability ([4]; first compound 0.08 µM)	relative viability ([4]; first compound 0.253 µM)	relative viability ([4]; first compound 0.8 µM)	relative viability ([4]; first compound 2.53 µM)	relative viability ([4]; first compound 8 µM)
NCI-H1915	0.768	0.993	1.06	1.11	0.831	0.926	1.05	0.784	0.927	0.884	0.347	0.358	0.359	0.347	0.374	0.254	0.255	0.256	0.257	0.257
NCI-H441		0.534		0.757	0.441	0.437	0.596	0.593	0.546	0.452	0.791	0.911	0.79	0.785	1.09	0.226	0.239	0.24	0.285	0.287
SW 1573	0.823	1.02	1.12	1.04	0.88	0.475	0.571	0.54	0.458	0.37	0.325	0.296	0.409	0.322	0.369	0.457	0.387	0.535	0.517	0.524
NCI-H661	1.05	0.71	0.697	0.678	0.718	0.331	0.425	0.333	0.39	0.349	0.308	0.279	0.288	0.288	0.287	0.537	0.529	0.56	0.564	0.505
PC-3 [JPC-3]	0.762	0.817	0.758	0.95	0.899	0.69	0.888	0.665	0.685	0.652	0.463	0.459	0.469	0.47	0.477	0.749	0.802	0.826	0.815	0.898
201T	1.09	1.13	1.14	1.09	1.13	0.646	0.697	0.652	0.584	0.846	0.459	0.436	0.428	0.434	0.439	0.831	0.85	0.844	0.871	0.873
NCI-H727	0.643	1.18	0.986	0.714	0.747	0.376	0.407	0.427	0.353	0.308	0.635	0.621	0.537	0.486	0.51	0.826	0.822	0.796	0.864	0.915
